Source: US12600709B2, “Nonpeptide somatostatin type 5 receptor agonists and uses thereof” (Crinetics Pharmaceuticals, Inc., priority 2019, dated 2026)
Like-named read-outs stand apart in the source and are kept apart here.

Key:
[1] = target: T1, human somatostatin receptor subtype 2 (Homo sapiens, UniProt P30874); experiment: cAMP assay for SST2R (inhibition of cAMP in CHO-K1 cells); assay type: cell-based; conditions: Table B; inhibition of cAMP via human SST2 receptor; read-out: SST2 potency
T1 construct: expressed in transfected cells
T1 sequence (P30874 whole entry): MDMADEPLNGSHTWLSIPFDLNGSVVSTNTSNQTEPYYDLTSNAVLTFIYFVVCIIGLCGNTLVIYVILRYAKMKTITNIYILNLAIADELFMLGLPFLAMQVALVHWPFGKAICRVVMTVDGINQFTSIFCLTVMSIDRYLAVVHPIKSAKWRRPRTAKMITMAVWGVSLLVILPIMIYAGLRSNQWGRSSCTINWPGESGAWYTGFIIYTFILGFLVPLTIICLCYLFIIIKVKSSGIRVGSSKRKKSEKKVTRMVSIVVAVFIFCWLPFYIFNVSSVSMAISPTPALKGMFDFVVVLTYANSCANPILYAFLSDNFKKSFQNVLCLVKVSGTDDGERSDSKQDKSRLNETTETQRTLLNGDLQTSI
Summary of the method: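 Agonism read as decrease in NKH477 (1.6 μM)-stimulated cAMP: compounds applied 20 min, 37° C, with 0.2 mM IBMX, to CHO-K1 stably expressing human SSTR2. cAMP quantified in lysates by time-resolved fluorescence (HTRF kit, 1-24 h RT), standard-curve regression, then EC50.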

[2] = target: T2, human somatostatin receptor subtype 5 (Homo sapiens, UniProt P35346); experiment: cAMP assay for SST5R (inhibition of cAMP in CHO-K1 cells); assay type: cell-based; conditions: for EC50: inhibition of cAMP via human SST5 receptor, read-out: SST5 potency; for Fold selectivity for SST5 vs SST2: class symbols, SST5 receptor over SST2 receptor
T2 construct: expressed in transfected cells
T2 sequence (P35346 whole entry): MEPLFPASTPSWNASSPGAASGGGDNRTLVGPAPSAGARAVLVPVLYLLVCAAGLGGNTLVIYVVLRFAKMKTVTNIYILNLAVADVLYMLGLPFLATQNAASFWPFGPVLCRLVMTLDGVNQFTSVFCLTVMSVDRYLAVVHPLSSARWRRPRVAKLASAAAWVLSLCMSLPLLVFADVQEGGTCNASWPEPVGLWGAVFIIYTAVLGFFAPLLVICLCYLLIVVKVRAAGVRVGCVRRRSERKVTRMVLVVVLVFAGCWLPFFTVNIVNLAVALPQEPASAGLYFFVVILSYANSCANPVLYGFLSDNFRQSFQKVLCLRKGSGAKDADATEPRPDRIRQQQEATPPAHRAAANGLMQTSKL
Summary of the method: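 CHO-K1 cells stably expressing human SSTR5 were treated 20 min at 37 °C with compounds plus 1.6 μM NKH477 in HBSS, 0.5 mM HEPES pH 7.4, 0.1% BSA, 0.2 mM IBMX. Lysate cAMP measured by HTRF against a standard curve; EC50 from cAMP-versus-concentration plots.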

Row | SMILES | EC50 [1] [nM] | EC50 ([2]; Table A) [nM] | Fold selectivity for SST5 vs SST2 ([2]; Table B) | EC50 ([2]; Table B) [nM]
1 | Cc1cccc2[nH]c(-c3cncc(C(=O)N(C)[C@@H](C)C4CC4)c3N3CC[C@](C)(N)C3)nc12 [2-29, 4-[(3S)-3-amino-3-methylpyrrolidin-1-yl]-N-[(1S)-1-cyclopropylethyl]-N-methyl-5-(4-methyl-1H-1,3-benzodiazol-2-yl)pyridine-3-carboxamide] | 10 to 100 | < 10 | + (+=10 to 99) | < 10
2 | COc1cc(-c2c(C#N)ncc(C(=O)NC3CCCCC3)c2N2CC[C@](C)(N)C2)ccn1 [1-252, 4-[(3S)-3-amino-3-methylpyrrolidin-1-yl]-2-cyano-N-cyclohexyl-2′-methoxy-[3,4′-bipyridine]-5-carboxamide] | 100 to 1000 | < 10 | +++ (+++=>500) | < 10
3 | C[C@H](NC(=O)c1cncc(-c2ccc3cnn(C)c3c2)c1N1CC[C@](C)(N)C1)C1CC1 [1-161, 4-[(3S)-3-amino-3-methylpyrrolidin-1-yl]-N-[(1S)-1-cyclopropylethyl]-5-(1-methyl-1H-indazol-6-yl)pyridine-3-carboxamide] | > 1000 | < 10 | ++ (++=100 to 499) | < 10
4 | C[C@]1(N)CCN(c2c(C(=O)NCc3ccccc3O)cnc(C#N)c2-c2cc(F)cc(F)c2)C1 [1-115, 4-[(3S)-3-amino-3-methylpyrrolidin-1-yl]-6-cyano-5-(3,5-difluorophenyl)-N-[(2-hydroxyphenyl)methyl]pyridine-3-carboxamide] | > 1000 | < 10 | +++ (+++=>500) | < 10
5 | Cc1ncc(-c2c(C#N)ncc(C(=O)N[C@@H](C)C3CC3)c2N2CC[C@](C)(N)C2)s1 [1-128, 4-[(3S)-3-amino-3-methylpyrrolidin-1-yl]-6-cyano-N-[(1S)-1-cyclopropylethyl]-5-(2-methyl-1,3-thiazol-5-yl)pyridine-3-carboxamide] | 100 to 1000 | < 10 | +++ (+++=>500) | < 10
6 | C[C@H](NC(=O)c1ncc(Cl)c(-c2cc(F)cc(F)c2)c1N1CC[C@](C)(N)C1)C1CC1 [4-1, 3-[(3S)-3-amino-3-methylpyrrolidin-1-yl]-5-chloro-N-[(1S)-1-cyclopropylethyl]-4-(3,5-difluorophenyl)pyridine-2-carboxamide] | > 1000 | < 10 | +++ (+++=>500) | < 10
7 | Cc1ncc(C(=O)N[C@@H](C)C2CC2)c(N2CC[C@H](N)C2)c1-c1cc(F)cc(Cl)c1 [1-272, 4-[(3S)-3-aminopyrrolidin-1-yl]-5-(3-chloro-5-fluorophenyl)-N-[(1S)-1-cyclopropylethyl]-6-methylpyridine-3-carboxamide] | 100 to 1000 | < 10 | +++ (+++=>500) | < 10
8 | C[C@H](NC(=O)c1cnc(C(F)(F)F)c(-c2cc(F)cc(F)c2)c1N1CC[C@H](N)C1)C1CC1 [1-199, 4-[(3S)-3-aminopyrrolidin-1-yl]-N-[(1S)-1-cyclopropylethyl]-5-(3,5-difluorophenyl)-6-(trifluoromethyl)pyridine-3-carboxamide] | 100 to 1000 | < 10 | +++ (+++=>500) | < 10
9 | C[C@]1(N)CCN(c2c(C(=O)NC34CC(F)(C3)C4)cnc(C(F)(F)F)c2-c2cc(F)cc(F)c2)C1 [1-217, 4-[(3S)-3-amino-3-methylpyrrolidin-1-yl]-5-(3,5-difluorophenyl)-N-{3-fluorobicyclo[1.1.1]pentan-1-yl}-6-(trifluoromethyl)pyridine-3-carboxamide] | 100 to 1000 | < 10 | +++ (+++=>500) | < 10
10 | Cc1cc(C)cc(NC(=O)c2cncc(-c3ccnc(C)c3)c2N2CC[C@](C)(N)C2)c1 [1-6, 4-[(3S)-3-amino-3-methylpyrrolidin-1-yl]-N-(3,5-dimethylphenyl)-2′-methyl-[3,4′-bipyridine]-5-carboxamide] | 10 to 100 | < 10 | ++ (++=100 to 499) | < 10
11 | C[C@H](NC(=O)c1cnc(C#N)c(-c2cc(F)cc(OC(F)F)c2)c1N1CC[C@](C)(N)C1)C(F)(F)F [1-180, 4-[(3S)-3-amino-3-methylpyrrolidin-1-yl]-6-cyano-5-[3-(difluoromethoxy)-5-fluorophenyl]-N-[(2S)-1,1,1-trifluoropropan-2-yl]pyridine-3-carboxamide] | 10 to 100 | < 10 | +++ (+++=>500) | < 10
12 | Cc1ncc(C(=O)N[C@@H](C)C2CC2)c(N2CC[C@](C)(N)C2)c1-c1cncc(F)c1 [1-160, 4-[(3S)-3-amino-3-methylpyrrolidin-1-yl]-N-[(1S)-1-cyclopropylethyl]-5′-fluoro-2-methyl-[3,3′-bipyridine]-5-carboxamide] | 100 to 1000 | < 10 | +++ (+++=>500) | < 10
13 | COc1ncc(C(=O)NCc2ccon2)c(N2CC[C@](C)(N)C2)c1-c1cc(F)cc(OC(F)F)c1 [1-239, 4-[(3S)-3-amino-3-methylpyrrolidin-1-yl]-5-[3-(difluoromethoxy)-5-fluorophenyl]-6-methoxy-N-[(1,2-oxazol-3-yl)methyl]pyridine-3-carboxamide] | > 1000 | < 10 | +++ (+++=>500) | < 10
14 | Cc1cccc2[nH]c(-c3cncc(C(=O)N4CCCC4C4CC4)c3N3CC[C@](C)(N)C3)nc12 (stereo partly drawn) [2-43, (3S)-1-[3-(2-cyclopropylpyrrolidine-1-carbonyl)-5-(4-methyl-1H-1,3-benzodiazol-2-yl)pyridin-4-yl]-3-methylpyrrolidin-3-amine] | 10 to 100 | < 10 | + (+=10 to 99) | < 10
15 | Cc1ncc(C(=O)N[C@@H](C)C2CC2)c(N2CC[C@](C)(N)C2)c1-c1cc(F)cc(Cl)c1 [1-125, 4-[(3S)-3-amino-3-methylpyrrolidin-1-yl]-5-(3-chloro-5-fluorophenyl)-N-[(1S)-1-cyclopropylethyl]-6-methylpyridine-3-carboxamide] | 10 to 100 | < 10 | +++ (+++=>500) | < 10
16 | Cc1cccc2[nH]c(-c3cncc(C(=O)N4CCC[C@H]4C(F)(F)F)c3N3CC[C@](C)(N)C3)nc12 [2-41, (3S)-3-methyl-1-[3-(4-methyl-1H-1,3-benzodiazol-2-yl)-5-[(2S)-2-(trifluoromethyl)pyrrolidine-1-carbonyl]pyridin-4-yl]pyrrolidin-3-amine] | 100 to 1000 | < 10 | + (+=10 to 99) | < 10
17 | COc1ncc(C(=O)N[C@@H](C)C(F)(F)F)c(N2CC[C@](C)(N)C2)c1-c1cc(F)cc(OC(F)F)c1 [1-188, 4-[(3S)-3-amino-3-methylpyrrolidin-1-yl]-5-[3-(difluoromethoxy)-5-fluorophenyl]-6-methoxy-N-[(2S)-1,1,1-trifluoropropan-2-yl]pyridine-3-carboxamide] | 100 to 1000 | < 10 | +++ (+++=>500) | < 10
18 | COc1ncc(C(=O)N[C@@H](C)C2CC2)c(N2CC[C@](C)(N)C2)c1-c1cncc(Cl)c1 [1-167, 4-[(3S)-3-amino-3-methylpyrrolidin-1-yl]-5′-chloro-N-[(1S)-1-cyclopropylethyl]-2-methoxy-[3,3′-bipyridine]-5-carboxamide] | > 1000 | < 10 | +++ (+++=>500) | < 10
19 | Cc1cc(F)cc(-c2cncc(C(=O)NC(C)C3CC3)c2N2CC[C@](C)(N)C2)c1 (stereo partly drawn) [1-24, 4-[(3S)-3-amino-3-methylpyrrolidin-1-yl]-N-(1-cyclopropylethyl)-5-(3-fluoro-5-methylphenyl)pyridine-3-carboxamide] | 10 to 100 | < 10 | +++ (+++=>500) | < 10
20 | Cc1ncc(C(=O)NC2CCC(F)(F)CC2)c(N2CC[C@](C)(N)C2)c1-c1cc(F)cc(F)c1 [1-181, 4-[(3S)-3-amino-3-methylpyrrolidin-1-yl]-N-(4,4-difluorocyclohexyl)-5-(3,5-difluorophenyl)-6-methylpyridine-3-carboxamide] | 100 to 1000 | < 10 | +++ (+++=>500) | < 10
21 | Cc1cc(C)cc(-c2cncc(C(=O)NC3CCCC(C)(C)C3)c2N2CC[C@](C)(N)C2)c1 (stereo partly drawn) [1-11, 4-[(3S)-3-amino-3-methylpyrrolidin-1-yl]-N-(3,3-dimethylcyclohexyl)-5-(3,5-dimethylphenyl)pyridine-3-carboxamide] | > 1000 | < 10 | +++ (+++=>500) | < 10
22 | CCC1(NC(=O)c2cncc(-c3cc(C)cc(F)c3)c2N2CC[C@](C)(N)C2)CCC1 [1-19, 4-[(3S)-3-amino-3-methylpyrrolidin-1-yl]-N-(1-ethylcyclobutyl)-5-(3-fluoro-5-methylphenyl)pyridine-3-carboxamide] | 100 to 1000 | < 10 | ++ (++=100 to 499) | < 10
